The values below come from patent US8642608B2, “Quinazoline derivatives as VEGF inhibitors” (AstraZeneca AB, priority 1999, dated 2014).

What is called IC50 is the concentration needed to halve the response being measured. The low end stands for higher potency, the high end for lower potency.

The structures appear in SMILES notation.

In assay [1] the test system is EGF-stimulated human umbilical vein endothelial cells (HUVEC). As to the kind of experiment: In vitro HUVEC proliferation assay (b), EGF-stimulated. Conditions: 96 h, test (b), EGF 3 ng/ml, 4 days, tritiated-thymidine incorporation. It counts as cell-based. How it is done: (§1) (b) In Vitro HUVEC Proliferation Assay
(§2) HUVEC cells were isolated in MCDB 131 (Gibco BRL)+7.5% v/v foetal calf serum (FCS) and were plated out (at passage 2 to 8), in MCDB 131+2% v/v FCS+3 μg/ml heparin+1 μg/ml hydrocortisone, at a concentration of 1000 cells/well in 96 well plates. After a minimum of 4 hours they were dosed with the appropriate growth factor (i.e. VEGF 3 ng/ml, EGF 3 ng/ml or b-FGF 0.3 ng/ml) and compound. The cultures were then incubated for 4 days at 37° C. with 7.5% carbon dioxide. On day 4 the cultures were pulsed with 1 μCi/well of tritiated-thymidine (Amersham product TRA 61) and incubated for 4 hours. The cells were harvested using a 96-well plate harvester (Tomtek) and then assayed for incorporation of tritium with a Beta plate counter. Incorporation of radioactivity into cells, expressed as cpm, was used to measure inhibition of growth factor-stimulated cell proliferation by compounds.
A general note: Uptake of a labelled nucleoside into DNA is a usual measure of proliferation.

The subject of assay [2] is femoral epiphyseal growth plates of the distal femur and proximal tibia. As to the kind of experiment: 14 day toxicity test in rat (d). It counts as in vivo, Alderley Park rats (Wistar derived). Conditions: 100 mg/kg/day, oral gavage, 14 days, female rats; p<0.001 (one-tailed Students' t-test). From the text: The toxicological profile of compounds of the present invention may be assessed, for example using a rat 14 day study as described hereinafter.
(d) 14 Day Toxicity Test in Rat
This test measures the activity of compounds in increasing the zone of hypertrophy in the femoral epiphyseal growth plates of the distal femur and proximal tibia, and allows assessment of histopathological changes in other tissues.
A. Preclinical Safety Evaluation of rhuMAbVEGF, an antiangiogenic humanised monoclonal antibody, Tox. Path., 27: 78-86, 1999).
Compounds were initially formulated by suspension in a 1% (v/v) solution of polyoxyethylene (20) sorbitan mono-oleate in deionised water, by ball-milling at 4° C. overnight (at least 15 hours). Compounds were re-suspended by agitation immediately prior to dosing. […] The femoral epiphyseal growth plate areas of the distal femur and proximal tibia were measured in sections of femur and tibia using morphometric image analysis. The increase in the zone of hypertrophy was determined by comparison of the mean epiphyseal growth plate area of the control group versus the treatment group, and statistical significance determined using a one-tailed Students' t-test. […]

For assay [3], the system named is human umbilical vein endothelial cells (HUVEC), basal. As to the kind of experiment: In vitro HUVEC proliferation assay (b), basal. Conditions: test (b). It counts as cell-based.
For assay [4], the system named is VEGF-stimulated human umbilical vein endothelial cells (HUVEC). Description: In vitro HUVEC proliferation assay (b), VEGF-stimulated. In kind it is cell-based. As to conditions: 96 h, test (b), VEGF 3 ng/ml, 4 days, tritiated-thymidine incorporation. On the procedure: as §1, §2
In the next assay the test system is CaLu-6 tumour xenografts. Description: In vivo solid tumour disease model (c). As to conditions: 50 mg/kg, orally once daily, CaLu-6 xenografts in mice; p<0.001 (Mann-Whitney Rank Sum Test). The arrangement: species or system female athymic Swiss nu/nu mice. How it is done: (c) In Vivo Solid Tumour Disease Model
This test measures the capacity of compounds to inhibit solid tumour growth.
CaLu-6 tumour xenografts were established in the flank of female athymic Swiss nu/nu mice, by subcutaneous injection of 1×10^6 CaLu-6 cells/mouse in 100 μl of a 50% (v/v) solution of Matrigel in serum free culture medium. […] Tumours were measured using vernier calipers and volumes were calculated as: (l×w)×√(1×w)×(π/6), where 1 is the longest diameter and w the diameter perpendicular to the longest diameter. Test compounds were administered orally once daily for a minimum of 21 days, and control animals received compound diluent. Tumours were measured twice weekly. The level of growth inhibition was calculated by comparison of the mean tumour volume of the control group versus the treatment group, and statistical significance determined using a Students' t-test and/or a Mann-Whitney Rank Sum Test. The inhibitory effect of compound treatment was considered significant when p<0.05.

As to `COc1cc2c(Nc3ccc(Br)cc3F)ncnc2cc1OCC1CCN(C)CC1` [Example 2, 4-(4-bromo-2-fluoroanilino)-6-methoxy-7-(1-methylpiperidin-4-ylmethoxy)quinazoline], the IC50 in assay [1] was 170 nM; in assay [3], above 3000 nM; in assay [4] it was 60 nM. In addition, the “increase in epiphyseal growth plate hypertrophy” value in assay [2] is recorded as 75%. Further, the “inhibition of tumour growth” value with CaLu-6 tumour xenografts is reported as 78%.
